In patent publication US8415469B2, “Compounds and methods for kinase modulation, and indications therefor” (Plexxikon Inc., priority 2005, dated 2013):
pIC50: −log10 of the molar value.

How the values were obtained:
Format in all cases: biochemical
Jak3 = target: T1, Jak3 (Homo sapiens, UniProt P52333); experiment: AlphaScreen kinase assay, Jak3; details: read-out: IC50, activity toward kinase Jak3
T1 sequence (P52333 1-1124): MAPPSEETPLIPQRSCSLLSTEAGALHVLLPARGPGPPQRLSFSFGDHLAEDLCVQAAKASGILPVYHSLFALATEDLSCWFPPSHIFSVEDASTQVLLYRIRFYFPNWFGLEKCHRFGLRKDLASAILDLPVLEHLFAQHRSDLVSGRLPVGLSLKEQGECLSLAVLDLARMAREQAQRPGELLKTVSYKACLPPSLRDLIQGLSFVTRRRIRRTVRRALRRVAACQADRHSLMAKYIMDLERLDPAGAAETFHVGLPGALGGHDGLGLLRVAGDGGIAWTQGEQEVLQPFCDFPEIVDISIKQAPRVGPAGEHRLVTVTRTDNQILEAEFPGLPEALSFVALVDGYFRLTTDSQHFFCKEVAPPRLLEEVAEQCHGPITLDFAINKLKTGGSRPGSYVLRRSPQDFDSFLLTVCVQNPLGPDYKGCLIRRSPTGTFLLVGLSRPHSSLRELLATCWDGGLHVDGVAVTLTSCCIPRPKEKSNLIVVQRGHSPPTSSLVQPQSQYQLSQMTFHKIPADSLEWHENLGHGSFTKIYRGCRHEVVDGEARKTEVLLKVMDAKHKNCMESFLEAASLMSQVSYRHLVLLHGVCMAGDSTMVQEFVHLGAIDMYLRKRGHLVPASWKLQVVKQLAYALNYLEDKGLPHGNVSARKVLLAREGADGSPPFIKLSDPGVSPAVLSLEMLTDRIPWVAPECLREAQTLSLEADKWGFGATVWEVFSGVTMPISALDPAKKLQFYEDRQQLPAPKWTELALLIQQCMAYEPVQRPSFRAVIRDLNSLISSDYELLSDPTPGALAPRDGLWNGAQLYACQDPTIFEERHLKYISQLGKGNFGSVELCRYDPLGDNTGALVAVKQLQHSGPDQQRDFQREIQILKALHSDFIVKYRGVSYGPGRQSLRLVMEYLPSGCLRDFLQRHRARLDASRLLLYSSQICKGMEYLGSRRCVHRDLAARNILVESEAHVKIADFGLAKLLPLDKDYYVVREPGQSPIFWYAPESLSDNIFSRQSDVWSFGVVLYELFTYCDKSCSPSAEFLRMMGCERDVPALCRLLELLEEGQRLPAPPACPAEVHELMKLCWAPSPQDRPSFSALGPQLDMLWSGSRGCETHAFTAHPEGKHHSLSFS
Procedure, shortened: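 Inhibition reads as diminished acceptor emission, since unphosphorylated peptide fails to bridge antibody acceptor beads and streptavidin donor beads. Titration: eight points, 1:3 steps, stocks at 20 mM in DMSO.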

Jnk3 = target: T2, Jnk3 (Homo sapiens, UniProt P53779); experiment: AlphaScreen kinase assay, Jnk3; details: read-out: IC50, activity toward kinase Jnk3
T2 construct: purchased Upstate Biotechnology

Ret = target: T3, Ret (Homo sapiens, UniProt P07949); experiment: AlphaScreen kinase assay, Ret; details: read-out: IC50, activity toward kinase Ret
T3 construct: P1378.pET-SF BI-PTP RET H661-R1012 HIS; made in house
T3 sequence (P07949 with tags, fused parts or gaps): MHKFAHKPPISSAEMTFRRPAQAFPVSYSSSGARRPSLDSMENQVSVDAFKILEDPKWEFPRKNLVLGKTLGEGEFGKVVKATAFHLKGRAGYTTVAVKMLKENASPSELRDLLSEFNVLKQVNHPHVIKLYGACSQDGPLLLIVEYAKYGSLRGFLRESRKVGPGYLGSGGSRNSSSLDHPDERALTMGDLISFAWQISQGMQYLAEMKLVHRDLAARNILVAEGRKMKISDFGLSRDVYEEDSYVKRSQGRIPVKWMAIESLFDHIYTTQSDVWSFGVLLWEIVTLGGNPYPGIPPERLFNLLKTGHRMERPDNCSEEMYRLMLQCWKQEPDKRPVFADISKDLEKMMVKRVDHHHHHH

Kdr = target: T4, Kdr (Homo sapiens, UniProt P35968); experiment: Z'-Lyte FRET kinase assay (Invitrogen), Kdr; details: read-out: IC50, activity toward kinase Kdr
T4 construct: purchased Invitrogen (assay run by Invitrogen)

Btk = target: T5, Btk (Homo sapiens, UniProt Q06187); experiment: Z'-Lyte FRET kinase assay (Invitrogen), Btk; details: read-out: IC50, activity toward kinase Btk
T5 construct: purchased Invitrogen (assay run by Invitrogen)

Flt1 = target: T6, Flt1 (Homo sapiens, UniProt P17948); experiment: AlphaScreen kinase assay, Flt1; details: read-out: IC50, activity toward kinase Flt1
T6 construct: P1826.pETN6 BI-PTP FLT1 M799-D1165-X WT; His6 (N); made in house; host or cells: E. coli (PTP1B co-expressed)
T6 sequence (P17948 with tags, fused parts or gaps): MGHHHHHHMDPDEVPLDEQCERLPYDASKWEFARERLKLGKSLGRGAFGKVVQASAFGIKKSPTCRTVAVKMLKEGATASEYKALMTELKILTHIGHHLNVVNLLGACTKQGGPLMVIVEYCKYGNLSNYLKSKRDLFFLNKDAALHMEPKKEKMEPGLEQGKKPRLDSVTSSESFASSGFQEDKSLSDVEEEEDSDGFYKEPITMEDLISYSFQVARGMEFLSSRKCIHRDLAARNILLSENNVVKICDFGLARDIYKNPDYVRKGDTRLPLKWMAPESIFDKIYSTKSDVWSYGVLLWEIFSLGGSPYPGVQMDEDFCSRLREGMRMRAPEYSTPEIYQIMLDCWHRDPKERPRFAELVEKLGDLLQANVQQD

Src = target: T7, Src (Homo sapiens, UniProt P12931); experiment: AlphaScreen kinase assay, Src; details: read-out: IC50, activity toward kinase Src
T7 construct: P1144. pET-N6 BI-PTP SRC V86-L536-X; made in house

Measured: pIC50

T2 sequence (P53779 whole entry): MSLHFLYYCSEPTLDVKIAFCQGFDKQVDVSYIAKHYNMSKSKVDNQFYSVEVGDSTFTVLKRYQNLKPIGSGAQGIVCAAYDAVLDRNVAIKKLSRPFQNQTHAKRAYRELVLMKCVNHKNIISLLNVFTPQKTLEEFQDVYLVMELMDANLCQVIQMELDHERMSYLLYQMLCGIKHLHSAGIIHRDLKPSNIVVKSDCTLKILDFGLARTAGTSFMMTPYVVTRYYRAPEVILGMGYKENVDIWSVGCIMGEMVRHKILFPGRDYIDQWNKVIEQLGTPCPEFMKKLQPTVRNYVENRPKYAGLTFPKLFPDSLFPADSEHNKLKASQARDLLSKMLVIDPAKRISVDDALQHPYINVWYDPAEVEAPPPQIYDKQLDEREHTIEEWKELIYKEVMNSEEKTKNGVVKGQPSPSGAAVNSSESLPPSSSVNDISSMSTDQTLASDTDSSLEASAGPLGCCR
T5 sequence (Q06187 whole entry): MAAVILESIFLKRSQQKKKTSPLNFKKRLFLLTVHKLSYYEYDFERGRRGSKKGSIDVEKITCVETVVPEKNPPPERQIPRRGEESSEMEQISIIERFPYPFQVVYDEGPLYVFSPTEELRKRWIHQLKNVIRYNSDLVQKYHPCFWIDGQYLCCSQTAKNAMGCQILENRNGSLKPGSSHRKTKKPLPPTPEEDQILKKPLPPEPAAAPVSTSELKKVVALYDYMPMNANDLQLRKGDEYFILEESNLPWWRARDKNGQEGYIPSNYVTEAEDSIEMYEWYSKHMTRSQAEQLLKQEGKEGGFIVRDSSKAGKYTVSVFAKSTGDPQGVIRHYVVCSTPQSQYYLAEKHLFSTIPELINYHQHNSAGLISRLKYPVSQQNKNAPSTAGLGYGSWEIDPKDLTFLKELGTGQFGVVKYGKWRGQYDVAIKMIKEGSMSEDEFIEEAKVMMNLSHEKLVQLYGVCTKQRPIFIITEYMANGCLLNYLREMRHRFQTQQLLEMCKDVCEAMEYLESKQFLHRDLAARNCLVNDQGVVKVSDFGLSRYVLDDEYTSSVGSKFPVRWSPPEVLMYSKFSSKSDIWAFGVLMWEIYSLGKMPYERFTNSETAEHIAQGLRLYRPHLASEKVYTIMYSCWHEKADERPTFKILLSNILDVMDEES
T7 sequence (P12931 with tags, fused parts or gaps): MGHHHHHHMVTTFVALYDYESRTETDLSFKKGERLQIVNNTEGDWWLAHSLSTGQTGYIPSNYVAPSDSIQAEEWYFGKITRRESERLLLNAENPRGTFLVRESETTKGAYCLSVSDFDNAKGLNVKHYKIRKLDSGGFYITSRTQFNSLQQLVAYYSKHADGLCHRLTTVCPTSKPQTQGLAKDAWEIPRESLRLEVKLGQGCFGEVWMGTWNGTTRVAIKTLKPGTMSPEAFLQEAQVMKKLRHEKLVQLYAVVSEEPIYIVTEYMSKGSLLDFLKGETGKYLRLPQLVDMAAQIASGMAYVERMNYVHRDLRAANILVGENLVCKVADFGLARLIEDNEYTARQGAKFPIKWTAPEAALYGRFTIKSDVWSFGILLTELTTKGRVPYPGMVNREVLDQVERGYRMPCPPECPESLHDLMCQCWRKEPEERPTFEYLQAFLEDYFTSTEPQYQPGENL
T4 sequence (P35968 20-1356): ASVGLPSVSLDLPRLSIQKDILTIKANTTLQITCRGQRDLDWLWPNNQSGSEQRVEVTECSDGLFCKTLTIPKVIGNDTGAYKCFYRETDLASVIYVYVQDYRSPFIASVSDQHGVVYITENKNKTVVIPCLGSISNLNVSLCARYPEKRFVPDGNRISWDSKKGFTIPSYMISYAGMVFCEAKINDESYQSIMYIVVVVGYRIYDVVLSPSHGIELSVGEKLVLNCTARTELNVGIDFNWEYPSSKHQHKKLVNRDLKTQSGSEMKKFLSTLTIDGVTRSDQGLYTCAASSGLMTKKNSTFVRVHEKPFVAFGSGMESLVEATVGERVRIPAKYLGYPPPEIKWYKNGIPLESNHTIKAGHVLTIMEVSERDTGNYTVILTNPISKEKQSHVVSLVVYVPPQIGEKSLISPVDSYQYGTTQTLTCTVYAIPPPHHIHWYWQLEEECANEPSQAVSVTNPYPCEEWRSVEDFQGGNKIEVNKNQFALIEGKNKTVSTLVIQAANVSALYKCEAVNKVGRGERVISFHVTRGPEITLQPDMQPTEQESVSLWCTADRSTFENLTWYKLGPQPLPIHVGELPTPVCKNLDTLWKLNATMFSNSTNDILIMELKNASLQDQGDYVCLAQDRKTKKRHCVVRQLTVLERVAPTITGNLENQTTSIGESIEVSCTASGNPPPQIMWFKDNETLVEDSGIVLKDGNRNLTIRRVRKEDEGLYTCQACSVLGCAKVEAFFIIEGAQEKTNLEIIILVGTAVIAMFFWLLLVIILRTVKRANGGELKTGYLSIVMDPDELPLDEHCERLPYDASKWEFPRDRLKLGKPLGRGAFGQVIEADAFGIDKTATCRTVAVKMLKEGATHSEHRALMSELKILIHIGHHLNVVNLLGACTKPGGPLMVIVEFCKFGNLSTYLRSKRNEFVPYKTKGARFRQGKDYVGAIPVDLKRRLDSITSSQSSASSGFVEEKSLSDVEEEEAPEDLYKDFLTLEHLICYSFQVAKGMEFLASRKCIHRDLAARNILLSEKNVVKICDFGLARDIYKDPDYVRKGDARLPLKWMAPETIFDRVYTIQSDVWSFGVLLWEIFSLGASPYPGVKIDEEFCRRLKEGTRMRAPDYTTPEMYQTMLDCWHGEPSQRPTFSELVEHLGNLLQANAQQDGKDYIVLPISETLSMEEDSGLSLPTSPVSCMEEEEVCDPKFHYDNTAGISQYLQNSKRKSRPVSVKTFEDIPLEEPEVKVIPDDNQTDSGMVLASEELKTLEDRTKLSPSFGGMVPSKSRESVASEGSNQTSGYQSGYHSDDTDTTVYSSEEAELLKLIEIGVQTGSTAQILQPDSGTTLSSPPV

Oc1ccc(F)c(Cc2c[nH]c3ncc(Br)cc23)c1F [Compound P-0122, 3-(5-Bromo-1H-pyrrolo[2,3-b]pyridin-3-ylmethyl)-2,4-difluoro-phenol]
≥ 5.00: Jak3 | Jnk3 | Ret | Kdr

NC(=O)c1ccc(-c2ccnc3[nH]cc(C(=O)c4ccccc4F)c23)cc1 [Compound P-0014]
≥ 5.00: Jak3 | Btk | Ret | Kdr

O=C(c1cccc(O)c1)c1c[nH]c2nccc(-c3cc(F)cc(F)c3)c12 [Compound P-0039]
≥ 5.00: Jak3 | Flt1 | Ret | Kdr

Nc1cccc(-c2cnc3[nH]cc(C(=O)c4cccc(O)c4)c3c2)c1 [Compound P-0003]
not listed: Btk
≥ 5.00: all other assays above

Cc1ccc(F)cc1C(=O)c1c[nH]c2nccc(-c3cccc(NS(C)(=O)=O)c3)c12 [Compound P-0124]
≥ 5.00: Jak3 | Ret

Cc1ccccc1C(=O)c1c[nH]c2nccc(-c3cccc(NS(C)(=O)=O)c3)c12 [Compound P-0109]
≥ 5.00: Jak3 | Btk | Ret

OC(c1c(F)ccc(F)c1F)c1c[nH]c2ncc(-c3cccnc3)cc12 (centres unmarked) [Compound P-0101]
≥ 5.00: Jak3 | Flt1 | Ret | Kdr

Nc1cccc(-c2ccnc3[nH]cc(C(=O)c4cc(F)ccc4F)c23)c1 [Compound P-0046]
≥ 5.00: Jak3 | Btk | Ret | Kdr

O=C(c1ccccc1F)c1c[nH]c2nccc(-c3ccsc3)c12 [Compound P-0051]
≥ 5.00: Jak3 | Btk | Ret | Kdr

Fc1cc(F)cc(-c2ccnc3[nH]cc(Sc4ccccn4)c23)c1 [Compound P-0106]
≥ 5.00: Jak3 | Kdr

O=C(c1cccc(O)c1F)c1c[nH]c2ncc(-c3cccs3)cc12 [Compound P-0521, (2-fluoro-3-hydroxy-phenyl)-(5-thiophen-2-yl-1H-pyrrolo[2,3-b]pyridin-3-yl)-methanone]
not listed: Btk
≥ 5.00: all other assays above

Nc1cccc(-c2ccnc3[nH]cc(C(=O)c4ccccc4F)c23)c1 [Compound P-0022]
≥ 5.00: Jak3 | Btk | Ret | Kdr

Cn1cc(C(F)(F)F)c(-c2ccc(S(=O)(=O)NCc3c[nH]c4ncccc34)s2)n1 [Compound P-0041]
not listed: Jak3
≥ 5.00: all other assays above

CS(=O)(=O)Nc1cccc(-c2ccnc3[nH]cc(C(=O)c4cc(F)ccc4F)c23)c1 [Compound P-0060]
≥ 5.00: Jak3 | Btk | Ret | Kdr

CC(=O)Nc1cccc(-c2ccnc3[nH]cc(C(=O)c4ccccc4F)c23)c1 [Compound P-0070]
≥ 5.00: Jak3 | Btk | Ret | Kdr

COc1ccc(F)c(C(=O)c2c[nH]c3ncc(-c4cccnc4)cc23)c1 [Compound P-0090]
not listed: Jak3
≥ 5.00: all other assays above

O=C(c1cc(F)ccc1F)c1c[nH]c2nccc(-c3cccnc3)c12 [Compound P-0063]
≥ 5.00: Jak3 | Btk | Ret | Kdr

O=C(c1ccccc1F)c1c[nH]c2ncc(-c3ccsc3)cc12 [Compound P-0134]
not listed: Jak3
≥ 5.00: all other assays above

NC(=O)c1cccc(-c2cnc3[nH]cc(C(=O)c4cccc(O)c4F)c3c2)c1 [Compound P-0034, 3-[3-(2-Fluoro-3-hydroxy-benzoyl)-1H-pyrrolo[2,3-b]pyridin-5-yl]benzamide]
not listed: Kdr | Btk
≥ 5.00: all other assays above

Cc1ccccc1C(=O)c1c[nH]c2nccc(-c3cccc(N)c3)c12 [Compound P-0044]
≥ 5.00: Jak3 | Btk | Ret | Kdr

NC(=O)c1cccc(-c2ccnc3[nH]cc(C(=O)c4cc(F)ccc4F)c23)c1 [Compound P-0049]
≥ 5.00: Jak3 | Btk | Ret | Kdr

Nc1cccc(-c2cnc3[nH]cc(C(=O)c4cccc(O)c4F)c3c2)c1 [Compound P-0004, [5-(3-amino-phenyl)-1H-pyrrolo[2,3-b]pyridin-3-yl]-(2-fluoro-3-hydroxy-phenyl)methanone]
not listed: Kdr | Btk
≥ 5.00: all other assays above
